For four compounds, IC50 results are on record in patent US5753650A, “Inhibitors of farnesyl-protein transferase” (Merck & Co., Inc., priority 1996, dated 1998).

This assay concerns the target Farnesyl-protein transferase (FTase). The assay can be described thus: In vitro inhibition of Ras farnesyl transferase (farnesylation of Ras-CVLS with [3H]FPP). The settings on record: Ras-CVLS 3.5 μM, [3H]FPP 0.25 μM; partially purified bovine or recombinant human enzyme; read-out: IC50 (concentration of the test compound which gives 50% inhibition of FTase). The format is biochemical. Here is the method: Farnesyl-protein transferase (FTase) from bovine brain was chromatographed on DEAE-Sephacel (Pharmacia, 0-0.8 M NaCl gradient elution), N-octyl agarose (Sigma, 0-0.6 M NaCl gradient elution), and a mono Q HPLC column (Pharmacia, 0-0.3 M NaCl gradient). Ras-CVLS at 3.5 μM, 0.25 μM [^3 H]FPP, and the indicated compounds were incubated with either a partially purified bovine enzyme preparation or a recombinant human enzyme preparation. The recombinant human enzyme was prepared as described in Omer, C. A., Kral, A. M., Diehl, R. E., Prendergast, G. C., Powers, S., Allen, C. M., Gibbs, J. B. and Kohl, N. E. (1993) Biochemistry 32:5167-5176. The FTase data presented below in Table 1 reflects the ability of the test compound to inhibit RAS farnesylation in vitro, as described in Pompliano, et al. Biochemistry 31:3800 (1992).
*(IC50 is the concentration of the test compound which gives 50%
inhibition of FTase under the described assay conditions)
For `N[C@@H](CS)C(=O)NC1N=C(c2ccccc2)c2ccccc2NC1=O` (single isomer, unassigned) [2 - slower eluting isomer], the IC50 was 42 µM.

As for `N[C@@H](CS)C(=O)NC1N=C(c2ccccc2)c2ccccc2NC1=O` (single isomer, unassigned) [2 - faster eluting isomer], the IC50 is 1.6 µM.

For `CN(C(=O)[C@@H](N)CS)C1N=C(c2ccccc2)c2ccccc2NC1=O` (single isomer, unassigned) [1 - faster eluting isomer], the IC50 stood at 2.6 µM.

For “3-[N-2(S)-amino-3-mercaptopropionyl-N-methyl]amino-2,3-dihydro-2-oxo-5-phenyl-1H-1,4-benzodiazepine [1 - slower eluting isomer]”, the IC50 is 0.11 µM.
